pIC50: −log10 of the molar value.

Among the data in US10696639B2, “Heterocyclic compounds as HIV protease inhibitors” (Merck Sharp & Dohme Corp., priority 2016, dated 2020) are IC50 values, retold here.

The target of this assay is T1, wild-type HIV-1 protease (Human immunodeficiency virus type 1 group M subtype B, UniProt P04585).
T1 construct: Escherichia coli expressed wild-type HIV-1 protease protein; made in house; host or cells: Escherichia coli
Put plainly: Assay for Inhibition of Microbial Expressed HIV Protease. Type of assay: biochemical. The conditions noted are these: E. coli expressed wild-type HIV-1 protease, peptide substrate cleavage, LC-MS readout; mean of at least two independent experiments; read-out: HIV Pr Enzyme HIV1 PR IC50. The protocol:
Assay for Inhibition of Microbial Expressed HIV Protease
Inhibition of Escherichia coli expressed wild-type HIV-1 protease protein was carried out with a peptide substrate [Val-Ser-Gln-Asn-(βnaphtyl)Ala-Pro-Ile-Val]. The inhibitor compound was preincubated with HIV-1 protease enzyme in assay buffer (50 mM sodium acetate, pH 5.5, 100 mM NaCl, and 0.1% BSA) for 30 minutes at room temperature. Peptide substrate was added to […] in a total volume of 20 μL containing 20 pM HIV-1 protease (final) after which the reaction was incubated for 1 hour at 30° C. The reaction was quenched by the addition of formic acid and HIV protease inhibitor indinavir to 0.012% and 150 nM final concentrations, respectively. Product formation was determined after separation of product and substrate on a ZORBAX Eclipse XDB-C18 column (Aligent Technologies, Santa Clara, Calif., USA) connected to an API 4000™ mass spectrometer (AB Sciex, Pte. Ltd., Concord Ontario, Canada) with multiple reaction monitoring (transitions were 644.5/428.9 and 615.4/422.2 (M1/M3) for product and indinavir respectively). The extent of inhibition of the reaction was determined from the peak area of the products. Analysis of the products, independently synthesized, provided quantitation standards and confirmation of the product composition.
One may read the pIC50 as −log10 of the IC50, conventionally taken in molar units. As to `N#Cc1cccc(C[C@H](N)C(=O)NCCCCN2C(=N)NC(c3ccccc3)(c3ccccc3)C2=O)c1` [Example 24, 3-cyano-N-[4-(2-imino-5-oxo-4,4-diphenylimidazolidin-1-yl)butyl]-L-phenylalaninamide], the pIC50 was 7.66.
The figure for `COC(=O)N[C@@H](Cc1ccc(F)cc1)C(=O)NCCCCN1C(=N)NC(c2ccccc2)(c2ccccc2)C1=O` [Example 25, 4-fluoro-N-[4-(2-imino-5-oxo-4,4-diphenylimidazolidin-1-yl)butyl]-N-alpha-(methoxycarbonyl)-L-phenylalaninamide] is 7.77; for `CC(C)OC(=O)N[C@@H](Cc1ccccc1)C(=O)NCCCCN1C(=N)NC(c2ccccc2)(c2ccccc2)C1=O` [Example 26, N-[4-(2-imino-5-oxo-4,4-diphenylimidazolidin-1-yl)butyl]-N-alpha-[(1-methylethoxy)carbonyl]-L-phenylalaninamide] it is 7.57.
The figure for `COC(=O)N[C@@H](Cc1ccc(F)cc1)C(=O)N[C@@H](C)CCCN1C(=N)N[C@](CC(C)C)(c2ccccc2)C1=O` [Example 27, 4-fluoro-N-{(1S)-4-[(4R)-2-imino-4-(2-methylpropyl)-5-oxo-4-phenylimidazolidin-1-yl]-1-methylbutyl}-N-alpha-(methoxycarbonyl)-L-phenylalaninamide] is 7.57; for `COC(=O)N[C@@H](Cc1ccccc1)C(=O)N[C@@H](C)CCCN1C(=N)N[C@](CC(C)C)(c2ccccc2)C1=O` [Example 28, N-{(1S)-4-[(4R)-2-imino-4-(2-methylpropyl)-5-oxo-4-phenylimidazolidin-1-yl]-1-methylbutyl}-N-alpha-(methoxycarbonyl)-L-phenylalaninamide] it is 8.05; for `COC(=O)N[C@@H](Cc1ccccc1)C(=O)NC(CCCN1C(=N)N[C@](CC(C)C)(c2ccccc2)C1=O)CC1CC1` (stereo partly drawn) [Example 29, N-{1-(cyclopropylmethyl)-4-[(4R)-2-imino-4-(2-methylpropyl)-5-oxo-4-phenylimidazolidin-1-yl]butyl}-N-alpha-(methoxycarbonyl)-L-phenylalaninamide] it is 7.48.
For `COC(=O)N[C@@H](Cc1cccc(Cl)c1)C(=O)NC(CCCN1C(=N)N[C@](CC(C)C)(c2ccccc2)C1=O)CC1CC1` (stereo partly drawn) [Example 30, 3-chloro-N-{1-(cyclopropylmethyl)-4-[(4R)-2-imino-4-(2-methylpropyl)-5-oxo-4-phenylimidazolidin-1-yl]butyl}-N-alpha-(methoxycarbonyl)-L-phenylalaninamide] the value was 7.01; for `COC(=O)N[C@@H](Cc1ccccc1Cl)C(=O)NC(CCCN1C(=N)N[C@](CC(C)C)(c2ccccc2)C1=O)CC1CC1` (stereo partly drawn) [Example 31, 2-chloro-N-{1-(cyclopropylmethyl)-4-[(4R)-2-imino-4-(2-methylpropyl)-5-oxo-4-phenylimidazolidin-1-yl]butyl}-N-alpha-(methoxycarbonyl)-L-phenylalaninamide_], 7.10; for `COC(=O)N[C@@H](Cc1cccc(Cl)c1)C(=O)N[C@H](CCCN1C(=N)N[C@](CC(C)C)(c2ccccc2)C1=O)C1CC1` [Example 32, 3-chloro-N-{(1R)-1-cyclopropyl-4-[(4R)-2-imino-4-(2-methylpropyl)-5-oxo-4-phenylimidazolidin-1-yl]butyl}-N-alpha-(methoxycarbonyl)-L-phenylalaninamide], 7.37.
As to `COC(=O)N[C@@H](Cc1ccccc1Cl)C(=O)N[C@H](CCCN1C(=N)N[C@](CC(C)C)(c2ccccc2)C1=O)C1CC1` [Example 33, 2-chloro-N-{(1R)-1-cyclopropyl-4-[(4R)-2-imino-4-(2-methylpropyl)-5-oxo-4-phenylimidazolidin-1-yl]butyl}-N-alpha-(methoxycarbonyl)-L-phenylalaninamide], the negative logarithm of the IC50 (pIC50) was 7.64.
On to `COC(=O)N[C@@H](Cc1ccccc1Cl)C(=O)N[C@@H](C)CCCN1C(=N)N[C@](CC(C)C)(c2ccccc2)C1=O` [Example 34, 2-chloro-N-{(1S)-4-[(4R)-2-imino-4-(2-methylpropyl)-5-oxo-4-phenylimidazolidin-1-yl]-1-methylbutyl}-N-alpha-(methoxycarbonyl)-L-phenylalaninamide], for which the pIC50 is 7.74.
For `COC(=O)N[C@@H](Cc1cccc(Cl)c1)C(=O)N[C@@H](C)CCCN1C(=N)N[C@](CC(C)C)(c2ccccc2)C1=O` [Example 35, 3-chloro-N-{(1S)-4-[(4R)-2-imino-4-(2-methylpropyl)-5-oxo-4-phenylimidazolidin-1-yl]-1-methylbutyl}-N-alpha-(methoxycarbonyl)-L-phenylalaninamide] the value was 7.70.
The figure for `COC(=O)N[C@@H](Cc1ccccc1)C(=O)N[C@H](CCCN1C(=N)N[C@](CC(C)C)(c2ccccc2)C1=O)C1CC1` [Example 36, N-{(1R)-1-cyclopropyl-4-[(4R)-2-imino-4-(2-methylpropyl)-5-oxo-4-phenylimidazolidin-1-yl]butyl}-N-alpha-(methoxycarbonyl)-L-phenylalaninamide] is 8.05; for `COC(=O)N[C@@H](Cc1ccc(Cl)cc1)C(=O)N[C@@H](C)CCCN1C(=N)N[C@](CC(C)C)(c2ccccc2)C1=O` [Example 37, 4-chloro-N-{(1S)-4-[(4R)-2-imino-4-(2-methylpropyl)-5-oxo-4-phenylimidazolidin-1-yl]-1-methylbutyl}-N-alpha-(methoxycarbonyl)-L-phenylalamnamide] it is 7.21.
The figure for `COC(=O)N[C@@H](Cc1cccc2ccccc12)C(=O)N[C@@H](C)CCCN1C(=N)N[C@](CC(C)C)(c2ccccc2)C1=O` [Example 38, methyl [(1S)-2-({(1S)-4-[(4R)-2-imino-4-(2-methylpropyl)-5-oxo-4-phenylimidazolidin-1-yl]-1-methylbutyl}amino)-1-(naphthalen-1-ylmethyl)-2-oxoethyl]carbamate] is 7.64.
Consider `COC(=O)N[C@@H](Cc1ccccc1OC)C(=O)N[C@@H](C)CCCN1C(=N)N[C@](CC(C)C)(c2ccccc2)C1=O` [Example 39, N-{(1S)-4-[(4R)-2-imino-4-(2-methylpropyl)-5-oxo-4-phenylimidazolidin-1-yl]-1-methylbutyl}-2-methoxy-N-alpha-(methoxycarbonyl)-L-phenylalaninamide], for which the pIC50 was 8.52.
The figure for `COC(=O)N[C@@H](Cc1cccc(OC)c1)C(=O)N[C@@H](C)CCCN1C(=N)N[C@](CC(C)C)(c2ccccc2)C1=O` [Example 40, N-{(1S)-4-[(4R)-2-imino-4-(2-methylpropyl)-5-oxo-4-phenylimidazolidin-1-yl]-1-methylbutyl}-3-methoxy-N-alpha-(methoxycarbonyl)-L-phenylalaninamide] is 7.27; for `COC(=O)N[C@@H](CC1CCCCC1)C(=O)N[C@@H](C)CCCN1C(=N)N[C@](CC(C)C)(c2ccccc2)C1=O` [Example 41, methyl [(1S)-1-(cyclohexylmethyl)-2-({(1S)-4-[(4R)-2-imino-4-(2-methylpropyl)-5-oxo-4-phenylimidazolidin-1-yl]-1-methylbutyl}amino)-2-oxoethyl]carbamate] it is 7.51.
For `COC(=O)N[C@@H](Cc1ccc2ccccc2c1)C(=O)N[C@@H](C)CCCN1C(=N)N[C@](CC(C)C)(c2ccccc2)C1=O` [Example 42, methyl ((S)-1-(((S)-5-((R)-2-imino-4-isobutyl-5-oxo-4-phenylimidazolidin-1-yl)pentan-2-yl)amino)-3-(naphthalen-2-yl)-1-oxopropan-2-yl)carbamate] the value was 7.34; for `COC(=O)N[C@@H](Cc1cccc(Cl)c1)C(=O)N[C@H](CCCN1C(=N)N[C@](CC(C)C)(c2ccccc2)C1=O)C(C)C` [Example 43, 3-chloro-N-[(1R)-4-[(4R)-2-imino-4-(2-methylpropyl)-5-oxo-4-phenylimidazolidin-1-yl]-1-(1-methylethyl)butyl]-N-alpha-(methoxycarbonyl)-L-phenylalaninamide], 8.30.
For `COC(=O)N[C@@H](Cc1ccccc1Cl)C(=O)N[C@H](CCCN1C(=N)N[C@](CC(C)C)(c2ccccc2)C1=O)C(C)C` [Example 44, 2-chloro-N-[(1R)-4-[(4R)-2-imino-4-(2-methylpropyl)-5-oxo-4-phenylimidazolidin-1-yl]-1-(1-methylethyl)butyl]-N-alpha-(methoxycarbonyl)-L-phenylalaninamide] the value was 7.70.
With `COC(=O)N[C@@H](Cc1ccccc1)C(=O)N[C@H](CCCN1C(=N)N[C@](CC(C)C)(c2ccccc2)C1=O)C(C)C` [Example 45, N-[(1R)-4-[(4R)-2-imino-4-(2 methylpropyl)-5-oxo-4-phenylimidazolidin-1-yl]-1-(1 methylethyl)butyl]-N-alpha-(methoxycarbonyl)-L-phenylalaninamide], the pIC50 was 7.57.
For `COC(=O)N[C@@H](Cc1ccccc1)C(=O)N[C@H](CCCN1C(=N)N[C@](CC(C)C)(c2ccccc2)C1=O)C(F)(F)F` [Example 46, N-[(1R)-4-[(4R)-2-imino-4-(2-methylpropyl)-5-oxo-4-phenylimidazolidin-1-yl]-1-(trifluoromethyl)butyl]-N-alpha-(methoxycarbonyl)-L-phenylalaninamide] the value was 7.49.
